Data reported in US7816088B2, “Identification, isolation and elimination of cancer stem cells” (The Board of Trustees of the Leland Stanford Junior …, priority 2003, dated 2010).
“Also recorded” adds a separate entry of the source. Where a name gives a salt, the structure may show the parent alone.

What was measured:
[1] = tested on: CD34+Lin− stem and progenitor cells; test: FACS analysis of hematopoietic stem and progenitor profiles of CML patient samples before and after imatinib; assay type: in vivo, human
Excerpt: Bone Marrow and Peripheral Blood Samples. Fresh human bone marrow was obtained with informed consent from healthy volunteers (AllCells, Berkeley, Calif.) as well as from allogeneic bone marrow donors (Department of Bone Marrow Transplantation, Stanford School of Medicine, Stanford, Calif.). Cytokine (G-CSF) mobilized peripheral blood samples were also obtained following apheresis from allogeneic donors.
Hematopoietic Stem Cell and Myeloid Progenitor Flow Cytometric Analysis and Cell Sorting. Mononuclear fractions were extracted following Ficoll density centrifugation according to standard methods and analyzed fresh or subsequent to rapid thawing of samples previously frozen in 90% FCS and 10% DMSO in liquid nitrogen. Prior to FACS analysis and sorting, hematopoietic stem cells (HSCs) were stained with lineage marker specific phycoerythrin (PE)-Cy5-conjugated antibodies including CD2 RPA-2.10; CD11b, ICRF44; CD20, 2H7; CD56, B159; GPA, GA-R2 (Becton Dickinson-PharMingen, San Diego), CD3, S4.1; CD4, S3.5; CD7, CD7-6B7; CD8, 3B5; CD10, 5-1B4, CD14, TUK4; CD19, SJ25-C1 (Caltag, South San Francisco, Calif.) and APC-conjugated anti-CD34, 84G12 (Becton Dickinson-Pharmingen), biotinylated anti-CD38, HIT2 (Caltag), FITC-conjugated anti-CD90 and PE conjugated anti-Flk2. […]
Myeloid progenitors were stained with the same lineage marker specific PE-Cy5-conjugated antibodies, APC-conjugated anti-CD34, 8G12 (Becton Dickinson-PharMingen) and biotinylated anti-CD38, HIT2 (Caltag) in addition to PE-conjugated anti-IL-3Rα, 9F5 (Becton Dickinson-ParMingen) and FITC-conjugated anti-CD45RA, MEM56 (Caltag) followed by staining with Streptavidin-Texas Red to visualize CD38-BIO stained cells and resuspension in propidium iodide to exclude dead cells. Unstained samples and isotype controls were included to assess background fluorescence. After staining, cells were analyzed and sorted using a modified FACS Vantage (Becton Dickinson Immunocytometry Systems, Mountain View, Calif.) equipped with a 599 nm dye laser and a 488 nm argon laser. […]

β-catenin = β-catenin FACS analysis of CML patient progenitors; assay type: in vivo, human; details: CML patients pre versus post-imatinib
Excerpt: β-catenin FACS Analysis. FACS-separated hematopoietic stem cells, common myeloid progenitors, granulocyte/macrophage progenitors, and megakaryocyte/erythroid progenitors were fixed with 0.8% paraformaldehyde and made permeable with 0.3% saponin. Cells were stained overnight with a fluorescein isothiocyanate (FITC)-conjugated antibody to β-catenin (Transduction Laboratories) or IgG1 isotype control-FITC antibody, washed, and analyzed by FACS.

## Cc1ccc(NC(=O)c2ccc(CN3CCN(C)CC3)cc2)cc1Nc1nccc(-c2cccnc2)n1 [imatinib, imatinib mesylate]
[1]; CML patients post-imatinib / responding to imatinib, bone marrow and peripheral blood
  number of CD34+Lin− cells: dramatic decline; also recorded: significant decrease
[1]; imatinib responsive patients
  number of CD34+CD38− and CD34+CD38+ cells: decreased
  proportion of individual myeloid progenitors: reverted to normal
β-catenin
  β-catenin levels (MFI) in myeloid progenitors: normal
